Where “and” joins values, the source holds several entries; their conditions need not be identical. Identical values can stand only once. ± gives the uncertainty stated by the source.
Assays:
Conditions in all cases: 18 h
HEK293T-Rex ERSE-FLuc [1] = experiment: EC50 for ERSE-FLuc reporter activation
Protocol: (§1)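 Dose-response of hit compounds in HEK293T-Rex cells stably expressing ERSE-FLuc or XBP1-RLuc reporters, 18 hr treatment, 1536-well; luminescence normalised to 500 nM thapsigargin (100%) and DMSO (0%), fitted to give EC50 (M) and maximal activation; '>' marks EC50 above the top tested dose (~17 µM).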

HEK293T-Rex XBP1-RLuc [2] = experiment: EC50 for XBP1-RLuc reporter activation
Protocol: as §1

HEK293T-Rex ERSE-FLuc [3] = experiment: maximal ERSE-FLuc activation from dose-response fit, relative to thapsigargin (% of thapsigargin); higher = stronger activation
Protocol: as §1

HEK293T-Rex XBP1-RLuc [4] = experiment: maximal XBP1-RLuc activation from dose-response fit, relative to thapsigargin (% of thapsigargin); higher = stronger activation
Protocol: as §1

SMILES | EC50 for ERSE-FLuc reporter activation (HEK293T-Rex ERSE-FLuc [1]) | EC50 for XBP1-RLuc reporter activation (HEK293T-Rex XBP1-RLuc [2]) [µM] | maximal ERSE-FLuc activation (HEK293T-Rex ERSE-FLuc [3]) | maximal XBP1-RLuc activation (HEK293T-Rex XBP1-RLuc [4])
O=C1N/C(=C/c2ccc(O)cc2)C(=O)N1c1ccccc1 | 3.42 µM | 4.36 | 110 ± 11 | 76 ± 3.7
CC(C)CC(c1nnnn1C1CCCC1)N1CCN(C(=O)c2ccco2)CC1 (configuration not stated) | > 16.9 µM | > 16.9 | 14.3 ± 1.5 | 8.89 ± 0.66
COc1ccc(/C=C/c2nc3cc([N+](=O)[O-])ccc3s2)cc1O | > 18.5 µM | > 18.5 | 39.5 ± 2.4 | 8.74 ± 5.7
CCN(CC)c1ccc(NC(=O)c2cccc(OC)c2)cc1 | > 17.8 µM | > 17.8 | 29.7 ± 5.3 | 2.18 ± 7.1
O=C(Nc1ccc(O)cc1)c1c(O)c2c([nH]c1=O)CCCC2 | > 16.1 µM | > 16.1 | 22.3 ± 2.9 | 28.5 ± 3.6
O=C(N/N=C/c1cccc(O)c1O)c1ccccc1I | > 16.9 µM | > 16.9 | 39.5 ± 4.5 | 17.8 ± 3.8
Nc1ccc2nc(-c3cc(Cl)c(N)c(Cl)c3)[nH]c2c1 | > 13 µM | > 13 | 22.7 ± 10 | 13.1 ± 1.1
COc1ccc(NC(=O)/C(Cl)=C\c2ccccc2)cc1 | > 16.9 µM | > 16.9 | 22.2 ± 2.3 | 4.41 ± 5
COc1ccccc1OCC(=O)Nc1cc(C)ccc1O | > 16.9 µM | > 16.9 | 45.8 ± 4.2 | 22.9 ± 1.1
Nc1ccc2nc(-c3ccccn3)[nH]c2c1 | > 16.9 µM | > 16.9 | 16.8 ± 4.6 | 22 ± 0.38
CCN(CC)c1ccc2cc(-c3nc4ccccc4n3C)c(=O)oc2c1 | > 10.6 µM | > 10.6 | 22.8 ± 1.6 | 2.95 ± 3.5
CS(=O)(=O)c1ncc(Cl)c(C(=O)C(C#N)c2nc3ccccc3s2)n1 (configuration not stated) | 2.49 µM | 3.99 | 73.2 ± 8.2 | 266 ± 8.4
COc1ccc(-c2nn(-c3ccccc3)cc2/C=C/C(=O)O)cc1[N+](=O)[O-] | > 18.5 µM | > 18.5 | 20.8 ± 4.1 | 6.98 ± 2.8
CC(=Nc1ccc(O)cc1)c1sc2ccccc2c1O | > 19.6 µM | > 19.6 | 19.8 ± 4.8 | 31.2 ± 4.8
CCOc1cc(C2C(C(=O)OC3CCCCC3)=C(C)NC3=C2C(=O)CC(c2ccc(OC)cc2)C3)cc(Br)c1O (configuration not stated) | 3.95 µM | 5.3 | 70.43 ± 0.082 | 88.6 ± 10
CN1C(=O)/C(=C\c2ccc(O)c(O)c2)SC1=S | > 16.9 µM | > 16.9 | 28 ± 15 | 40.5 ± 3.6
COc1ccc2oc(=Nc3cc(F)ccc3F)c(C(N)=O)cc2c1 | > 14.7 µM | > 14.7 | 19.1 ± 2.2 | 1.95 ± 1.5
O=C(CCCN1CCC2(CC1)C(=O)N(Cc1cccc(F)c1)CN2c1ccccc1)c1ccc(F)cc1 | 4.46 µM | 4.02 | 187 ± 19 | 214 ± 7.7
O=C(NCCc1ccccc1)c1cc(-c2cccs2)on1 | 12.4 µM | > 16.9 | 64.6 ± 9.1 | 8.27 ± 3.3
O=C(CCCN1CCC2(CC1)C(=O)NCN2c1ccccc1)c1ccc(F)cc1 | 7.34 µM | 3.23 | 157 ± 16 | 186 ± 12
O=c1cc(-c2ccc(O)c(O)c2)oc2cc(O)cc(O)c12 | 14.1 µM and 7.57 µM | > 16.9 | 80.9 and 67.8 | 36.6 and 29
CC1(C)Cc2ccccc2/C(=C/C(=O)C(=O)N/N=C/c2ccc(O)c(O)c2)N1 | > 16.9 µM | 6.13 | 39 ± 3.2 | 54.9 ± 3.4

SMILES | EC50 for ERSE-FLuc reporter activation (HEK293T-Rex ERSE-FLuc [1]) | EC50 for XBP1-RLuc reporter activation (HEK293T-Rex XBP1-RLuc [2]) [µM] | maximal ERSE-FLuc activation (HEK293T-Rex ERSE-FLuc [3]) | maximal XBP1-RLuc activation (HEK293T-Rex XBP1-RLuc [4])
Cc1ccc(O)c(NC(=O)c2cc(-c3ccco3)on2)c1 | 4.85 µM | > 16.9 | 167.3 ± 1.6 | 34.4 ± 4.2
Cn1cccc1/C=C1/SC(=Nc2ccccc2)NC1=O | > 16.7 µM | > 16.7 | 40.8 ± 2.8 | 18.6 ± 6.5
N#C/C(=C\c1ccc(O)c(O)c1)c1nc2ccccc2[nH]1 | > 16.9 µM | > 16.9 | 37.6 ± 12 | 25.6 ± 1.6
N#Cc1c(NC(=O)c2cccc(F)c2)sc2c1CCC2 | > 16.5 µM | > 16.5 | 19.5 ± 3.1 | 2.22 ± 1.6
COc1ccc2[nH]c3c(N4CCCCC4)ncnc3c2c1 | > 17.1 µM | > 17.1 | 27.4 ± 2.9 | 9.73 ± 1.4
O=C(Nc1nc2c(s1)CCCC2)c1cccc2ccccc12 | > 18.2 µM | > 18.2 | 32.2 ± 1.6 | 6.96 ± 1.1
Cn1c(-c2cccc(Cl)c2)cnc1NC(=O)c1ccccc1 | > 16.9 µM | > 16.9 | 23.6 ± 2.5 | 8.33 ± 5.9
Cc1ccc(C)c(/C=N/Nc2nncc3ccccc23)c1 | > 17.1 µM | > 17.1 | 26.4 ± 5.4 | 8.33 ± 1.1
CC(Oc1ccc(Cl)cc1Cl)C(=O)NNC(=O)c1ccc(O)c(O)c1 (configuration not stated) | > 14.9 µM | > 14.9 | 50 ± 8.3 | 45.2 ± 5.7
CN(C)c1ccc(/C=C/C(=O)NC(=O)c2ccccc2OC(=O)c2ccccc2)cc1 | > 12.9 µM | > 12.9 | 25 ± 1.2 | 11.5 ± 1.4
Oc1cccc(Nc2nc(-c3ccc(O)c(O)c3)cs2)c1 | 12.5 µM | 16.5 | 83.3 ± 11 | 51.6 ± 3.2
Cc1ccccc1-c1cc(=O)c2cc(Cl)ccc2o1 | > 17 µM | > 17 | 24.3 ± 3.6 | 21.7 ± 1.1
CCOc1cccc(/C=C2\NC(=S)N(C)C2=O)c1O | > 16.9 µM | > 16.9 | 6.21 ± 2 | 0.0882 ± 1.7
O=C(N/N=C/c1ccc(O)c(O)c1)c1ccc(Br)cc1 | 16 µM | 16.8 | 51.2 ± 4.4 | 50.1 ± 4.6
Nc1ccc2nc(/C=C/c3ccco3)[nH]c2c1 | > 16.9 µM | > 16.9 | 27.4 ± 2.5 | 32.3 ± 1.3
O=C(N/N=C/c1cccc2ccccc12)c1ccc2c(c1)OCO2 | > 16.9 µM | > 16.9 | 25.3 ± 5.6 | 0.725 ± 0.6
O=C(Nc1ccc(O)cc1)c1ccc2ccccc2c1 | > 16.9 µM | > 16.9 | 31.4 ± 2.5 | 16.2 ± 1.5
O=C(N/N=C\C(Br)=C\c1ccccc1)c1n[nH]c2c1CCCC2 | > 16.9 µM | > 16.9 | 17.2 ± 4.7 | 9.49 ± 5.7
Cc1ccn2cc(-c3ccc(O)c(O)c3)nc2c1 | > 20.3 µM | 11.9 | 25.3 ± 5.2 | 70.3 ± 12
COC(=O)c1ccc2c(COC(C)=O)c(OC(C)=O)ccc2c1COC(C)=O | 14.7 µM | > 16.9 | 70.9 ± 16 | 19.2 ± 4.8
COc1cc(/C=C/c2ccc(O)c(OC)c2)ccc1O | > 16.9 µM | 8.73 | 31.1 ± 6.9 | 72.3 ± 8.1

— the supplement of paper PMC4954754
